Test results published in ChEMBL document CHEMBL1137721, “Modeling the activity of furin inhibitors using artificial neural network” (Eur J Med Chem, 2009).

Target: Furin (Homo sapiens, UniProt P09958)
Assay: Inhibition of human recombinant furin-dependent anthrax protective antigen processing

Furin, sequence (P09958 whole entry): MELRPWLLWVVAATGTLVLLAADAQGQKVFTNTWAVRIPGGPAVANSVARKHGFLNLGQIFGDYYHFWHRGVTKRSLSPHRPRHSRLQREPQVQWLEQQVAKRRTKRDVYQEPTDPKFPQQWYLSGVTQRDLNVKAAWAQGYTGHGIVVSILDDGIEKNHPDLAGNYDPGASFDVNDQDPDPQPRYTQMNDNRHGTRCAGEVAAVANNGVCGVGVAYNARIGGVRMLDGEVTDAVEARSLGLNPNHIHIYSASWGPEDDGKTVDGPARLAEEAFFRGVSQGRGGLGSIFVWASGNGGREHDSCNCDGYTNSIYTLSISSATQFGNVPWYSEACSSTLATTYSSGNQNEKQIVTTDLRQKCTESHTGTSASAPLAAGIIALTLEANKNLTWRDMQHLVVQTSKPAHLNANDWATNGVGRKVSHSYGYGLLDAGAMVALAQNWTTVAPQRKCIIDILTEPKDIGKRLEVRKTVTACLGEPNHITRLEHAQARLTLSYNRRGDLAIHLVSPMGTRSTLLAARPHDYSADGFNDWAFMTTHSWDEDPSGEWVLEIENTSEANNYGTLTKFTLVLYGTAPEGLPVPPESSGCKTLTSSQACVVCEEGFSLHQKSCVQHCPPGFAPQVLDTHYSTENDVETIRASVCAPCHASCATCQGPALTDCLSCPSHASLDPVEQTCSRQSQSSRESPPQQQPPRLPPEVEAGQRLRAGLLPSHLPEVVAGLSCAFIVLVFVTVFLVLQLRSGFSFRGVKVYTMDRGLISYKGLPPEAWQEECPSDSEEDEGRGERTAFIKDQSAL

Compound	Ki [nM]
N=C(N)Nc1ccc(NC(=O)O[C@H]2C[C@@H](OC(=O)Nc3ccc(NC(=N)N)cc3)[C@H](NC(=N)N)C[C@@H]2NC(=N)N)cc1	812
NC(N)=N[C@H]1C[C@@H](N=C(N)N)[C@H](Oc2ccccn2)C[C@@H]1Oc1ccccn1	100000
NC(N)=Nc1cnccc1O[C@H]1C[C@@H](Oc2ccncc2N=C(N)N)[C@H](N=C(N)N)C[C@@H]1N=C(N)N	100000
NC(N)=Nc1cccnc1O[C@H]1C[C@@H](Oc2ncccc2N=C(N)N)[C@H](N=C(N)N)C[C@@H]1N=C(N)N	100000
NC(N)=Nc1ccc(O[C@H]2C[C@@H](Oc3ccc(N=C(N)N)c4ccccc34)[C@H](N=C(N)N)C[C@@H]2N=C(N)N)c2ccccc12	69
NC(N)=Nc1ccccc1O[C@H]1C[C@@H](Oc2ccccc2N=C(N)N)[C@H](N=C(N)N)C[C@@H]1N=C(N)N	100000
NC(N)=Nc1ccc(O[C@@H]2C[C@H](Oc3ccc(N=C(N)N)cc3N=C(N)N)[C@@H](N=C(N)N)C[C@H]2N=C(N)N)cc1	89
N=C(N)Nc1ccc(O[C@H]2C[C@@H](Oc3ccc(NC(=N)N)c4ccccc34)[C@H](NC(=N)N)C[C@@H]2NC(=N)N)cc1	6
NC(N)=Nc1ccc(N[C@H]2C[C@@H](N=C(N)N)[C@H](Oc3ccc(N=C(N)N)cc3)C[C@@H]2Oc2ccc(N=C(N)N)cc2)cc1	46
NC(N)=Nc1cccc(NC(=O)O[C@H]2C[C@@H](OC(=O)Nc3cccc(N=C(N)N)c3)[C@H](N=C(N)N)C[C@@H]2N=C(N)N)c1	1770
N=C(N)N[C@H]1C[C@@H](NC(=N)N)[C@H](Oc2ccc3nc(N)[nH]c3c2)C[C@@H]1Oc1ccc2nc(N)[nH]c2c1	100000
N=C(N)Nc1ccccc1NC(=O)O[C@H]1C[C@@H](OC(=O)Nc2ccccc2NC(=N)N)[C@H](NC(=N)N)C[C@@H]1NC(=N)N	100000
N=C(N)Nc1ccc(O[C@H]2C[C@@H](Oc3ccc(NC(=N)N)cc3NC(=N)N)[C@H](NC(=N)N)C[C@@H]2NC(=N)N)c(NC(=N)N)c1	169
NC(N)=Nc1ccc(O[C@H]2C[C@@H](Oc3ccc(N=C(N)N)c4ccccc34)[C@H](N=C(N)N)C[C@@H]2N=C(N)N)c(N=C(N)N)c1	404
NC(N)=Nc1ccc(N[C@H]2C[C@@H](N=C(N)N)[C@H](Oc3ccc(N=C(N)N)c4ccccc34)C[C@@H]2Oc2ccc(N=C(N)N)c3ccccc23)c2ccccc12	423
N=C(N)Nc1ccc(O[C@H]2C[C@@H](Oc3ccc(NC(=N)N)cn3)[C@H](NC(=N)N)C[C@@H]2NC(=N)N)nc1	42
N=C(N)Nc1ccc(O[C@H]2C[C@@H](Oc3ccc(NC(=N)N)c4ccccc34)[C@H](NC(=N)N)C[C@@H]2NC(=N)N)c(N)c1	22
NC(N)=Nc1ccc(O[C@H]2C[C@@H](Oc3ccc(N=C(N)N)cc3)[C@H](N=C(N)N)C[C@@H]2N=C(N)N)cc1	12
